Laboratory results reported in PubChem BioAssay AID248 (DTP/NCI, 2004).
Where “and” joins values, the source holds several entries; their conditions need not be identical. Identical values can stand only once. Toxic doses and inconclusive results are not listed.

Test system: L1210 leukemia ip in BDF1 mice, survival T/C
Experiment: NCI In Vivo Anticancer Drug Screen. Data for tumor model L1210 Leukemia (intraperitoneal) in B6D2F1 (BDF1) mice
Conditions: endpoint: mean survival time, higher = longer survival
Outline: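 Transplanted-tumor mice were given test agent; controls received vehicle only. Survival readings from the two groups were divided (treated over control).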

[1] = dose: 100.0 mg/kg/injection, schedule: Q01DX001 (ip), vehicle: saline
[2] = dose: 200.0 mg/kg/injection, schedule: Q01DX001 (ip), vehicle: saline
[3] = dose: 400.0 mg/kg/injection, schedule: Q01DX001 (ip), vehicle: saline
[4] = dose: 100.0 mg/kg/injection, schedule: Q01DX009 (ip), vehicle: Klucel (hydroxypropylcellulose) (HPC)
[5] = dose: 400.0 mg/kg/injection, schedule: Q01DX009 (ip), vehicle: Klucel (hydroxypropylcellulose) (HPC)
[6] = dose: 100.0 mg/kg/injection, schedule: Q04DX002 (ip), vehicle: Klucel (hydroxypropylcellulose) (HPC)
[7] = dose: 200.0 mg/kg/injection, schedule: Q04DX002 (ip), vehicle: Klucel (hydroxypropylcellulose) (HPC)
[8] = dose: 400.0 mg/kg/injection, schedule: Q04DX002 (ip), vehicle: Klucel (hydroxypropylcellulose) (HPC)

Compound: COc1cc(-c2ccc(Nc3ccccc3C(=O)O)c(OC)c2)ccc1Nc1ccccc1C(=O)O
- T/C (dose: 6.0 mg/kg/injection, schedule: Q01DX006 (iv), vehicle: carboxymethylcellulose (CMC)): 111 % of control
- T/C (dose: 12.0 mg/kg/injection, schedule: Q01DX006 (iv), vehicle: carboxymethylcellulose (CMC)): 106 % of control
- T/C (dose: 13.0 mg/kg/injection, schedule: Q01DX Z (ip), vehicle: saline): 122 % of control
- T/C (dose: 20.0 mg/kg/injection, schedule: Q01DX Z (ip), vehicle: saline): 114 % of control
- T/C (dose: 25.0 mg/kg/injection, schedule: Q01DX006 (iv), vehicle: carboxymethylcellulose (CMC)): 107 % of control
- T/C (dose: 25.0 mg/kg/injection, schedule: Q01DX Z (ip), vehicle: carboxymethylcellulose (CMC)): 103 % of control
- T/C (dose: 29.0 mg/kg/injection, schedule: Q01DX Z (ip), vehicle: saline): 116 % of control
- T/C (dose: 37.5 mg/kg/injection, schedule: Q01DX006 (iv), vehicle: carboxymethylcellulose (CMC)): 108 % of control
- T/C (dose: 44.0 mg/kg/injection, schedule: Q01DX Z (ip), vehicle: carboxymethylcellulose (CMC)): 104 % of control and 112 % of control
- T/C (dose: 44.0 mg/kg/injection, schedule: Q01DX Z (ip), vehicle: methylcellulose (MC)): 100 % of control
- T/C (dose: 44.0 mg/kg/injection, schedule: Q01DX Z (ip), vehicle: saline): 117 % of control and 122 % of control
- T/C (dose: 45.0 mg/kg/injection, schedule: Q01DX Z (ip), vehicle: carboxymethylcellulose (CMC)): 104 % of control
- T/C (dose: 50.0 mg/kg/injection, schedule: Q01DX006 (iv), vehicle: carboxymethylcellulose (CMC)): 106 % of control
- T/C (dose: 50.0 mg/kg/injection, schedule: Q01DX015 (ip), vehicle: saline): 98 % of control
- T/C (dose: 50.0 mg/kg/injection, schedule: Q01DX Z (ip), vehicle: carboxymethylcellulose (CMC)): 97 % of control and 101 % of control
- T/C (dose: 64.0 mg/kg/injection, schedule: Q01DX Z (ip), vehicle: carboxymethylcellulose (CMC)): 102 % of control
- T/C (dose: 66.0 mg/kg/injection, schedule: Q01DX Z (ip), vehicle: carboxymethylcellulose (CMC)): 110 % of control
- T/C (dose: 66.0 mg/kg/injection, schedule: Q01DX Z (ip), vehicle: methylcellulose (MC)): 105 % of control
- T/C (dose: 66.0 mg/kg/injection, schedule: Q01DX Z (ip), vehicle: saline): 109 % of control and 114 % of control
- T/C (dose: 98.0 mg/kg/injection, schedule: Q01DX Z (ip), vehicle: methylcellulose (MC)): 98 % of control
- T/C (dose: 98.0 mg/kg/injection, schedule: Q01DX Z (ip), vehicle: saline): 97 % of control
- T/C (dose: 99.0 mg/kg/injection, schedule: Q01DX Z (ip), vehicle: carboxymethylcellulose (CMC)): 100 % of control
- T/C (dose: 100.0 mg/kg/injection, schedule: Q01DX015 (ip), vehicle: saline): 96 % of control
- T/C (dose: 100.0 mg/kg/injection, schedule: Q01DX Z (ip), vehicle: saline): 119 % of control
- T/C (dose: 147.0 mg/kg/injection, schedule: Q01DX Z (ip), vehicle: methylcellulose (MC)): 110 % of control
- T/C (dose: 147.0 mg/kg/injection, schedule: Q01DX Z (ip), vehicle: saline): 100 % of control
- T/C (dose: 150.0 mg/kg/injection, schedule: Q01DX Z (ip), vehicle: carboxymethylcellulose (CMC)): 95 % of control
- T/C (dose: 200.0 mg/kg/injection, schedule: Q01DX015 (ip), vehicle: saline): 101 % of control
- T/C (dose: 200.0 mg/kg/injection, schedule: Q01DX Z (ip), vehicle: carboxymethylcellulose (CMC)): 103 % of control and 106 % of control
- T/C (dose: 200.0 mg/kg/injection, schedule: Q01DX Z (oral), vehicle: carboxymethylcellulose (CMC)): 103 % of control
- T/C (dose: 220.0 mg/kg/injection, schedule: Q01DX Z (ip), vehicle: methylcellulose (MC)): 98 % of control
- T/C (dose: 220.0 mg/kg/injection, schedule: Q01DX Z (ip), vehicle: saline): 108 % of control
- T/C (dose: 334.0 mg/kg/injection, schedule: Q01DX Z (ip), vehicle: saline): 120 % of control
- T/C (dose: 400.0 mg/kg/injection, schedule: Q01DX015 (ip), vehicle: saline): 96 % of control
- T/C (dose: 400.0 mg/kg/injection, schedule: Q01DX Z (oral), vehicle: carboxymethylcellulose (CMC)): 103 % of control
- T/C (dose: 800.0 mg/kg/injection, schedule: Q01DX Z (oral), vehicle: carboxymethylcellulose (CMC)): 95 % of control
- T/C (dose: 1600.0 mg/kg/injection, schedule: Q01DX Z (oral), vehicle: carboxymethylcellulose (CMC)): 111 % of control

Compound: CCOC(=O)/C(C)=N/Nc1cc(Cl)ccc1O
- T/C [1]: 95 % of control
- T/C [2]: 94 % of control
- T/C [3]: 106 % of control

Compound: O=C(Nc1ccc(C(=O)Nc2cccc(C3=NCCN3)c2)cc1)Nc1ccc(C2=NCCN2)cc1
- T/C (dose: 15.0 mg/kg/injection, schedule: Q01DX Z (ip), vehicle: saline): 202 % of control
- T/C (dose: 30.0 mg/kg/injection, schedule: Q01DX Z (ip), vehicle: saline): 183 % of control
- T/C (dose: 60.0 mg/kg/injection, schedule: Q01DX Z (ip), vehicle: saline): 122 % of control
- T/C (dose: 120.0 mg/kg/injection, schedule: Q01DX Z (ip), vehicle: saline): 100 % of control

Compound: CCc1ccc(C(C)=O)o1
- T/C (dose: 100.0 mg/kg/injection, schedule: Q01DX001 (ip), vehicle: other): 104 % of control
- T/C (dose: 200.0 mg/kg/injection, schedule: Q01DX001 (ip), vehicle: other): 108 % of control
- T/C (dose: 400.0 mg/kg/injection, schedule: Q01DX001 (ip), vehicle: other): 111 % of control

Compound: CC(C)c1ccc(N2P(=O)(N(C)C)N(c3ccc(C(C)C)cc3)P2(=O)N(C)C)cc1 (configuration not stated)
- T/C [4]: 95 % of control
- T/C (dose: 200.0 mg/kg/injection, schedule: Q01DX009 (ip), vehicle: Klucel (hydroxypropylcellulose) (HPC)): 92 % of control
- T/C [5]: 98 % of control

Compound: O=C1CCCCC1C(O)(C(=O)c1ccccc1)c1ccccc1 (configuration not stated)
- T/C [6]: 100 % of control
- T/C [7]: 96 % of control
- T/C [8]: 100 % of control

Compound: C1=C(c2ccccc2)N=C(c2ccccc2)C2C(c3ccccc3)N2C1c1ccccc1 (configuration not stated)
- T/C (dose: 100.0 mg/kg/injection, schedule: Q01DX001 (ip), vehicle: Klucel (hydroxypropylcellulose) (HPC)): 87 % of control
- T/C (dose: 200.0 mg/kg/injection, schedule: Q01DX001 (ip), vehicle: Klucel (hydroxypropylcellulose) (HPC)): 91 % of control

Compound: CCNCCCCNCC
- T/C (dose: 25.0 mg/kg/injection, schedule: Q01DX009 (ip), vehicle: saline with Tween-80): 95 % of control
- T/C (dose: 25.0 mg/kg/injection, schedule: Q04DX003 (ip), vehicle: saline with Tween-80): 98 % of control
- T/C (dose: 50.0 mg/kg/injection, schedule: Q01DX009 (ip), vehicle: saline with Tween-80): 101 % of control
- T/C (dose: 50.0 mg/kg/injection, schedule: Q04DX003 (ip), vehicle: saline with Tween-80): 91 % of control
- T/C (dose: 100.0 mg/kg/injection, schedule: Q04DX003 (ip), vehicle: saline with Tween-80): 94 % of control and 87 % of control

Compound: Cc1ccc([N+](=O)[O-])cc1NC(=O)Nc1ccccc1O
- T/C [4]: 92 % of control
- T/C [5]: 87 % of control

Compound: CC1(C)OC2COC(c3[nH]nc4c(=O)[nH][nH]c(=O)c34)C2O1 (configuration not stated)
- T/C (dose: 100.0 mg/kg/injection, schedule: Q01DX005 (ip), vehicle: saline): 103 % of control
- T/C (dose: 200.0 mg/kg/injection, schedule: Q01DX005 (ip), vehicle: saline): 106 % of control

Compound: CCOC(=O)C(Cc1ccccc1Cl)(Cc1ccccc1Cl)c1ccccc1
- T/C (dose: 100.0 mg/kg/injection, schedule: Q01DX009 (ip), vehicle: saline with Tween-80): 92 % of control
- T/C (dose: 200.0 mg/kg/injection, schedule: Q01DX009 (ip), vehicle: saline with Tween-80): 90 % of control
- T/C (dose: 400.0 mg/kg/injection, schedule: Q01DX009 (ip), vehicle: saline with Tween-80): 90 % of control

Compound: CC(C)(Cl)CCC1=C(Cl)C(=O)c2ccccc2C1=O
- T/C (dose: 5.0 mg/kg/injection, schedule: Q01DX001 (ip), vehicle: water): 98 % of control
- T/C (dose: 10.0 mg/kg/injection, schedule: Q01DX001 (ip), vehicle: water): 98 % of control

Compound: CC(=O)c1ccc(C)c2ccccc12
- T/C [1]: 101 % of control
- T/C [2]: 102 % of control
- T/C [3]: 95 % of control

Compound: CCC1([N+](=O)[O-])COP(=O)(OC(=O)c2ccccc2)OC1 (configuration not stated)
- T/C [1]: 100 % of control
- T/C [2]: 108 % of control
- T/C [3]: 97 % of control

Compound: c1ccc2c(N=NSc3ncnc4nc[nH]c34)c3ccccc3nc2c1
- T/C (dose: 5.0 mg/kg/injection, schedule: Q01DX001 (ip), vehicle: carboxymethylcellulose (CMC)): 105 % of control
- T/C (dose: 10.0 mg/kg/injection, schedule: Q01DX001 (ip), vehicle: carboxymethylcellulose (CMC)): 115 % of control
- T/C (dose: 20.0 mg/kg/injection, schedule: Q01DX001 (ip), vehicle: carboxymethylcellulose (CMC)): 98 % of control
- T/C (dose: 40.0 mg/kg/injection, schedule: Q01DX001 (ip), vehicle: carboxymethylcellulose (CMC)): 107 % of control

Compound: O=C(Nc1ccc(Cl)cc1C(=O)c1ccccc1)c1ccc(Cl)cc1
- T/C [6]: 92 % of control
- T/C [7]: 89 % of control
- T/C [8]: 95 % of control
